Literature values in patent US10925890B2, “Use of dextran sulfate” (TX MEDIC AB, priority 2014, dated 2021).

Tested on: angiogenesis
Conditions: cited from earlier work

Row | Substance | Effect on angiogenesis (U.S. Pat. No. 5,135,920) | Effect on angiogenesis in vivo (Glycobiology 3, 567-573 (1993), Pathophysiology of Haemostasis and Thrombosis 23, 141-149 (1993))
1 | dextran sulfate | angiostatic | 
2 | heparin |  | inhibited angiogenesis
